Data: DBAASP
Values after ≈ are worked out from the molar mass of the structure shown.

Experiments:
Assay in all cases: ≥ marks a high value that may be exact or a test limit, other limits are often not marked, values filed in µg/mL are converted to µM
[1] = test system: Staphylococcus aureus ATCC 25923
[2] = test system: Candida albicans ATCC 90028
[3] = test system: Escherichia coli ATCC 25922
[4] = test system: Bacillus subtilis ATCC 6633
[5] = test system: Candida albicans ATCC 10231
[6] = test system: Candida albicans
[7] = test system: Staphylococcus aureus
[8] = test system: Bacillus subtilis
[9] = test system: Escherichia coli
[10] = test system: Staphylococcus aureus ATCC 29213
[11] = test system: Pseudomonas aeruginosa ATCC 27853
[12] = test system: Staphylococcus epidermidis

Structure (SMILES) | MIC [2] | MIC [3] | MIC [8] | MIC [9] | also measured
CC[C@H](C)[C@H](NC(=O)[C@H](CC(C)C)NC(=O)[C@@H]1CCCN1C(=O)[C@H](CC(C)C)NC(=O)[C@@H](N)Cc1ccccc1)C(=O)N[C@@H](C)C(=O)NCC(=O)N[C@H](C(=O)N[C@@H](C)C(=O)N[C@@H](C)C(=O)N[C@@H](CO)C(=O)N[C@H](C(=O)N[C@@H](CC(C)C)C(=O)N1CCC[C@H]1C(=O)N[C@@H](CCCCN)C(=O)N[C@H](C(=O)N[C@@H](Cc1ccccc1)C(=O)N[C@H]1CSSC[C@@H](C(=O)O)NC(=O)[C@H](CCCCN)NC(=O)[C@H](CCCCN)NC(=O)[C@H]([C@@H](C)O)NC(=O)[C@H]([C@@H](C)CC)NC(=O)[C@H](Cc2ccccc2)NC1=O)[C@@H](C)CC)[C@@H](C)CC)C(C)C [FLPLIAGVAASILPKIFCFITKKC] | 3 µM (≈ 7.78 µg/mL) | > 100 µM | – | – | MIC [1]: 3 µM (≈ 7.78 µg/mL)
CC(C)C[C@H](NC(=O)[C@@H]1CCCN1C(=O)[C@H](CCCCN)NC(=O)[C@@H]1CCCN1C(=O)[C@H](Cc1ccc(O)cc1)NC(=O)[C@H](CCCCN)NC(=O)[C@H](Cc1c[nH]c2ccccc12)NC(=O)[C@H](CCCN=C(N)N)NC(=O)[C@@H](N)Cc1ccccc1)C(=O)N[C@@H](CCCCN)C(=O)N[C@@H](CCCN=C(N)N)C(=O)O [FRWKYPKPLKR] | – | > 65.8 µM | – | – | MIC [1]: > 65.8 µM; MIC [4]: ≥ 65.8 µM; MIC [5]: > 65.8 µM
CSCC[C@H](NC(=O)[C@H](Cc1ccccc1)NC(=O)CN)C(=O)N[C@@H](CO)C(=O)N[C@H](C(=O)N[C@@H](C)C(=O)N[C@@H](CO)C(=O)N[C@@H](CC(N)=O)C(=O)N[C@H](C(=O)N[C@@H](CC(C)C)C(=O)N[C@H](C(=O)N[C@@H](CC(N)=O)C(=O)N[C@H](C(=O)N[C@@H](C)C(=O)NCC(=O)N[C@H](C(=O)N[C@H](C(=O)N[C@@H](CCSC)C(=O)N[C@@H](CC(=O)O)C(=O)N[C@@H](CCCCN)C(=O)N[C@@H](CC(C)C)C(=O)N[C@@H](CCCCN)C(=O)N[C@H]1CSSC[C@@H](C(=O)O)NC(=O)[C@H](C)NC(=O)CNC(=O)[C@H]([C@@H](C)O)NC(=O)[C@H](Cc2ccccc2)NC(=O)[C@H](CCCCN)NC1=O)C(C)C)[C@@H](C)O)C(C)C)[C@@H](C)O)C(C)C)[C@@H](C)O [GFMSTASNVLTNVAGTVMDKLKCKFTGAC] | – | – | – | – | MIC [4]: ≥ 100 µM
CC[C@H](C)[C@H](NC(=O)[C@@H](NC(=O)[C@H](CC(N)=O)NC(=O)[C@H](CC(C)C)NC(=O)[C@H](CC(C)C)NC(=O)CN)C(C)C)C(=O)N[C@@H](CCCCN)C(=O)N[C@@H](CC(=O)O)C(=O)N[C@H](C(=O)N[C@@H](C)C(=O)N[C@@H](CCC(N)=O)C(=O)N[C@@H](CC(N)=O)C(=O)N[C@@H](CC(C)C)C(=O)N[C@@H](Cc1ccccc1)C(=O)N[C@@H](C)C(=O)N[C@@H](C)C(=O)N[C@@H](C)C(=O)N[C@@H](CC(C)C)C(=O)N[C@@H](CCC(=O)O)C(=O)N[C@@H](CCCCN)C(=O)N[C@@H](CC(C)C)C(=O)N[C@@H](CCCCN)C(=O)N[C@H]1CSSC[C@@H](C(=O)N[C@@H](CC(N)=O)C(=O)O)NC(=O)[C@H](CCCCN)NC(=O)[C@H]([C@@H](C)O)NC(=O)[C@H](C(C)C)NC(=O)[C@H](CCCCN)NC1=O)[C@@H](C)O [GLLNVIKDTAQNLFAAALEKLKCKVTKCN] | ≥ 160 µM | 80 µM (≈ 252 µg/mL) | – | – | MIC [1]: > 160 µM
CC[C@H](C)[C@H](NC(=O)CNC(=O)[C@H](CO)NC(=O)[C@H](CC(C)C)NC(=O)[C@H](CC(C)C)NC(=O)CN)C(=O)N[C@@H](CC(C)C)C(=O)NCC(=O)N[C@@H](C)C(=O)NCC(=O)N[C@@H](CCCCN)C(=O)N[C@@H](Cc1cnc[nH]1)C(=O)N[C@H](C(=O)N[C@H](C(=O)N[C@H]1CSSC[C@@H](C(=O)O)NC(=O)[C@H](CC(C)C)NC(=O)CNC(=O)[C@H](CO)NC(=O)[C@H](CC(C)C)NC(=O)CNC1=O)[C@@H](C)CC)[C@@H](C)CC [GLLSGILGAGKHIICGLSGLC] | – | – | ≥ 50.4 µM | > 50.4 µM | MIC [6]: 0.555 µM (≈ 1.1 µg/mL); MIC [7]: > 50.4 µM
CC[C@H](C)[C@H](NC(=O)CNC(=O)[C@H](CO)NC(=O)[C@H](CC(C)C)NC(=O)[C@H](CC(C)C)NC(=O)CN)C(=O)N[C@@H](CC(C)C)C(=O)NCC(=O)N[C@@H](C)C(=O)NCC(=O)N[C@@H](CCCCN)C(=O)N[C@@H](Cc1cnc[nH]1)C(=O)N[C@H](C(=O)N[C@H](C(=O)N[C@@H](CS)C(=O)NCC(=O)N[C@@H](CC(C)C)C(=O)N[C@@H](CO)C(=O)NCC(=O)N1CCC[C@H]1C(=O)N[C@H]1CSSC[C@@H](C(=O)O)NC(=O)[C@H](CCCCN)NC(=O)[C@H](C)NC(=O)[C@H](CC(C)C)NC(=O)[C@H](Cc2cnc[nH]2)NC(=O)[C@H](Cc2ccc(O)cc2)NC(=O)[C@H](CCC(=O)O)NC(=O)[C@H](C(C)C)NC(=O)[C@H](CC(=O)O)NC(=O)[C@H](CO)NC(=O)[C@H](CO)NC(=O)[C@H](CCCCN)NC(=O)[C@H](CCCN=C(N)N)NC(=O)[C@H](CC(N)=O)NC(=O)[C@H](CC(C)C)NC(=O)[C@H](CO)NC(=O)[C@H](CCC(N)=O)NC1=O)C(C)C)[C@@H](C)CC [GLLSGILGAGKHIVCGLSGPCQSLNRKSSDVEYHLAKC] | – | – | 3.19 µM (≈ 12.5 µg/mL) | 1.6 µM (≈ 6.25 µg/mL) | MIC [6]: 0.797 µM (≈ 3.12 µg/mL); MIC [7]: 0.797 µM (≈ 3.12 µg/mL)
CC[C@H](C)[C@H](N)C(=O)N[C@@H](CC(=O)O)C(=O)N[C@@H](Cc1c[nH]c2ccccc12)C(=O)N[C@@H](CCCCN)C(=O)N[C@@H](CCCCN)C(=O)N[C@H](C(=O)N[C@@H](Cc1ccccc1)C(=O)N[C@@H](CCC(=O)O)C(=O)N[C@@H](CCCCN)C(=O)N[C@H](C(=O)N[C@@H](CCCCN)C(=O)N[C@@H](CC(=O)O)C(=O)N[C@@H](CC(C)C)C(=O)N[C@H](C(N)=O)C(C)C)C(C)C)[C@@H](C)CC [IDWKKIFEKVKDLV] | – | – | 17.5 µM (≈ 30.8 µg/mL) | 47.5 µM (≈ 83.6 µg/mL) | –
CC[C@H](C)[C@H](NC(=O)[C@H](CCCN=C(N)N)NC(=O)[C@H](C)NC(=O)[C@@H](NC(=O)[C@@H](NC(=O)[C@H](CCCN=C(N)N)NC(=O)[C@@H](N)CCCCN)[C@@H](C)CC)C(C)C)C(=O)N[C@@H](CCCCN)C(=O)N[C@@H](C)C(=O)N[C@@H](C)C(=O)N[C@@H](CC(C)C)C(=O)N[C@@H](CCCN=C(N)N)C(=O)O [KRIVARIKAALR] | 10 µM (≈ 13.9 µg/mL) | 2.5 µM (≈ 3.49 µg/mL) | – | – | MIC [10]: 5 µM (≈ 6.97 µg/mL); MIC [11]: 2.5 µM (≈ 3.49 µg/mL)
CC[C@H](C)[C@H](NC(=O)[C@H](CCCN=C(N)N)NC(=O)[C@H](CCCCN)NC(=O)[C@@H](NC(=O)[C@@H](NC(=O)[C@H](CCCN=C(N)N)NC(=O)[C@@H](N)CCCCN)[C@@H](C)CC)C(C)C)C(=O)N[C@@H](CCCCN)C(=O)N[C@@H](C)C(=O)N[C@@H](Cc1ccccc1)C(=O)N[C@@H](CC(C)C)C(=O)N[C@@H](CCCN=C(N)N)C(=O)O [KRIVKRIKAFLR] | 1.25 µM (≈ 1.91 µg/mL) | 1.25 µM (≈ 1.91 µg/mL) | – | – | MIC [10]: 1.25 µM (≈ 1.91 µg/mL); MIC [11]: 1.25 µM (≈ 1.91 µg/mL)
CC[C@H](C)[C@H](NC(=O)[C@H](CCCN=C(N)N)NC(=O)[C@H](CCC(N)=O)NC(=O)[C@@H](NC(=O)[C@@H](NC(=O)[C@H](CCCN=C(N)N)NC(=O)[C@@H](N)CCCCN)[C@@H](C)CC)C(C)C)C(=O)N[C@@H](C)C(=O)N[C@@H](CC(=O)O)C(=O)N[C@@H](Cc1ccccc1)C(=O)N[C@@H](CC(C)C)C(=O)N[C@@H](CCCN=C(N)N)C(=O)O [KRIVQRIADFLR] | ≥ 40 µM | 40 µM (≈ 60.6 µg/mL) | – | – | MIC [10]: 40 µM (≈ 60.6 µg/mL); MIC [11]: 40 µM (≈ 60.6 µg/mL)
CC[C@H](C)[C@H](NC(=O)[C@H](CC(C)C)NC(=O)[C@H](C)NC(=O)[C@@H]1CCCN1C(=O)[C@H](CC(C)C)NC(=O)[C@@H](N)CC(C)C)C(=O)N[C@@H](CO)C(=O)N[C@@H](Cc1c[nH]c2ccccc12)C(=O)N[C@H](C(=O)N[C@@H](CCCCN)C(=O)N[C@@H](CCCN=C(N)N)C(=O)N[C@@H](CCCCN)C(=O)N[C@@H](CCCN=C(N)N)C(=O)N[C@@H](CCC(N)=O)C(=O)N[C@@H](CCC(N)=O)C(N)=O)[C@@H](C)CC [LLPALISWIKRKRQQ] | – | – | 1.19 µM (≈ 2.2 µg/mL) | 38.3 µM (≈ 70.8 µg/mL) | MIC [7]: 0.595 µM (≈ 1.1 µg/mL)
CC[C@H](C)[C@H](NC(=O)[C@H](CO)NC(=O)[C@H](C)NC(=O)[C@@H](NC(=O)[C@H](CCCCN)NC(=O)[C@H](CCCCN)NC(=O)[C@H](Cc1c[nH]c2ccccc12)NC(=O)[C@@H](NC(=O)[C@@H](N)CC(N)=O)[C@@H](C)CC)[C@@H](C)CC)C(=O)N[C@@H](C)C(=O)N[C@@H](CCCCN)C(=O)N[C@@H](CCC(=O)O)C(=O)N[C@H](C(=O)N[C@@H](CC(C)C)C(=O)N[C@@H](CCCCN)C(=O)N[C@@H](C)C(=O)N[C@@H](CC(C)C)C(N)=O)C(C)C [NIWKKIASIAKEVLKAL] | – | – | 10 µM (≈ 19.2 µg/mL) | 6.25 µM (≈ 12 µg/mL) | –
CC[C@H](C)[C@H](NC(=O)[C@H](CC(=O)O)NC(=O)[C@@H](NC(=O)[C@H](CCCCN)NC(=O)[C@H](Cc1ccccc1)NC(=O)[C@@H]1CCCN1)[C@@H](C)CC)C(=O)N[C@@H](Cc1cnc[nH]1)C(=O)N[C@@H](CC(C)C)C(=O)NCC(=O)NCC(=O)N[C@@H](Cc1ccc(O)cc1)C(N)=O [PFKIDIHLGGY] | – | – | – | – | MIC [12]: 23.8 µM (≈ 30 µg/mL)
CC(C)[C@H](NC(=O)[C@H](CCCCN)NC(=O)[C@@H](NC(=O)[C@H](CCC(N)=O)NC(=O)[C@H](CCCCN)NC(=O)[C@H](Cc1c[nH]c2ccccc12)NC(=O)[C@@H](N)CCCN=C(N)N)C(C)C)C(=O)N[C@@H](CCCCN)C(=O)N[C@@H](CCCN=C(N)N)C(=O)O [RWKQVKVKR] | – | 61.1 µM (≈ 75 µg/mL) | – | – | MIC [1]: > 81.5 µM; MIC [4]: ≥ 61.1 µM; MIC [5]: 30.5 µM (≈ 37.5 µg/mL)
